IC50 and IC90 data for 11 compounds are collected here from patent US8309685B2 (Celgene Avilomics Research, Inc., priority 2007, dated 2012).

Experiment [1] addresses T1, wild type HCV NS3/4A 1b protease enzyme (Hepatitis C virus genotype 1b, UniProt P26663).
T1 construct: 10× stocks of NS3/4A protease enzyme from Bioenza (Mountain View, Calif.); purchased Bioenza (Mountain View, Calif.)
Briefly: biochemical. It counts as biochemical. As to conditions: read-out: Inhibition, WT; WT enzyme, FRET assay. Here is the method:
(§1) HCV Protease FRET Assay for Wild Type and Mutated NS3/4A 1b Enzymes (IC50)
(§2) Protease reactions were started with the addition of 45 μL of the FRET substrate and monitored for 120 minutes at λex487/λem514 through Quad^4 monochromoters in a Synergy^4 plate reader from BioTek (Winooski, Vt.). At the conclusion of each assay, progress curves from each well were examined for linear reaction kinetics and fit statistics (R^2, absolute sum of squares).
(§3) The compound numbers correspond to the compound numbers in Table 3.

In experiment [2] the target is T2, D168A mutant of the HCV NS3/4A 1b protease enzyme (Hepatitis C virus genotype 1b, UniProt P26663, D1194A).
T2 construct: 10× stocks of NS3/4A protease enzyme from Bioenza (Mountain View, Calif.); purchased Bioenza (Mountain View, Calif.)
Briefly: HCV Protease FRET Assay (IC50), D168A mutant. The class given is biochemical. The settings on record: read-out: Inhibition, HCV D168A; D168A enzyme, FRET assay. The protocol: as §1, §2, §3

Experiment [3] deals with HCV RNA replicon in cell line ET (luc-ubi-neo/ET), human Huh7 hepatoma. Nature of the experiment: Method A: HCV RNA replicon antiviral assay (luciferase, ET cell line). As to conditions: Hepatitis C virus, Huh-7, assay described in Example 22; for IC50: read-out: Replicon (IC50). It counts as cell-based, Hepatitis C virus. The protocol: The compounds were assayed to evaluate the antiviral activity and cytotoxicity of compounds in vitro using HCV RNA replicons. This assay used the cell line ET (luc-ubi-neo/ET), which is a human Huh7 hepatoma cell line that contains an HCV RNA replicon with a stable luciferase (Luc) reporter and three cell culture-adaptive mutations. […]
The ET cell line was grown in Dulbecco's modified essential media (DMEM), 10% fetal bovine serum (FBS), 1% penicillin-streptomycin (pen-strep), 1% glutamine, 250 μg/ml G418 in a 5% CO2 incubator at 37° C. All cell culture reagents were obtained from Mediatech (Manassas, Va.). Cells were trypsinized (1% trypsin:EDTA) and plated out at 5×10^3 cells/well in white 96-well assay plates (Costar) dedicated to cell number (cytotoxicity) or antiviral activity assessments. Drugs were added at six 3-fold concentrations each and the assay was run in DMEM, 5% FBS, 1% pen-strep, 1% glutamine. Human interferon alpha-2b (PBL Biolabs, New Brunswick, N.J.) was included in each run as a positive control compound. Cells were processed 72 hr post drug addition when the cells are still subconfluent. Antiviral activity was measured by analyzing replicon-derived luciferase activity using the Steady-Glo Luciferase Assay System (Promega, Madison, Wis.) according to manufacturer's instruction. The number of cells in each well was determined by CytoTox-1 reagent (Promega). Compound profile was derived by calculating applicable EC50 (effective concentration inhibiting virus replication by 50%), EC90 (effective concentration inhibiting virus replication by 90%), IC50 (concentration decreasing cell viability by 50%) and SI50 (selective index: […]) values.

Experiment [4] addresses T2, D168A mutant of the HCV NS3/4A 1b protease enzyme. Briefly: HCV Protease FRET Assay (IC50_APP), D168A mutant. The class given is biochemical. The settings on record: apparent IC50, D168A mutant; read-out: IC50_APP, HCV D168A. The protocol: (§4) HCV Protease FRET Assay for WT and Mutated NS3/4A 1b Enzymes (IC50—APP).
(§5) The following protocol was used to generate “apparent” IC50 (IC50—APP) values as depicted in Table 6, below. […] 5 μL of each enzyme were added to Corning (#3575) 384-well, black, microtiter plates (Corning, N.Y.) after spotting a 0.5 μL volume of 50% DMSO and serially diluted compounds prepared in 50% DMSO. Protease reactions were immediately started after enzyme addition with the addition of 45 μL of the FRET substrate and monitored for 60-90 minutes at λex485/λem520 in a Synergy^4 plate reader from BioTek (Winooski, Vt.). At the conclusion of each assay, progress curves from each well were examined for linear reaction kinetics and fit statistics (R^2, 95% confidence intervals, absolute sum of squares).
(§6) The compound numbers correspond to the compound numbers in Table 3. […] ;

Experiment [5] has as its target T1, wild type HCV NS3/4A 1b protease enzyme. Nature of the experiment: HCV Protease FRET Assay (IC50_APP), wild type. It counts as biochemical. Here is the method:
as §4, §5, §6

For experiment [6], the target named is T3, A156T mutant of the HCV NS3/4A 1b protease enzyme (Hepatitis C virus genotype 1b, UniProt P26663, A1182T).
T3 construct: 10× stocks of NS3/4A protease enzyme from Bioenza (Mountain View, Calif.); purchased Bioenza (Mountain View, Calif.)
Nature of the experiment: HCV Protease FRET Assay (IC50_APP), A156T mutant. The class given is biochemical. The settings on record: apparent IC50, A156T mutant; read-out: IC50_APP, HCV A156T. Here is the method:
as §4, §5, §6

The structures appear in SMILES notation. Some results are limits rather than exact numbers.

As to `C=C[C@@H]1C[C@]1(NC(=O)[C@@H]1C[C@@H](Oc2cc(-c3ccccc3)nc3cc(OC)ccc23)CN1C(=O)CNC(=O)[C@@H](Cl)c1ccccc1)C(=O)NS(=O)(=O)c1ccccc1` (stereo in doubt) [Compound I-45, (2S,4R)-1-(2-((S,R)-2-chloro-2-phenylacetamido)acetyl)-4-(7-methoxy-2-phenylquinolin-4-yloxy)-N-((1R,2S)-1-(phenylsulfonylcarbamoyl)-2-vinylcyclopropyl)pyrrolidine-2-carboxamide], the IC50 in experiment [1] was 0.1 to 1 µM; in experiment [2], 1 to 10 µM.

Take `C=C[C@@H]1C[C@]1(NC(=O)[C@@H]1C[C@@H](Oc2cc(-c3ccccc3)nc3cc(OC)ccc23)CN1C(=O)[C@H](CCNC(=O)C(C)Cl)NC(=O)OC(C)(C)C)C(=O)NS(=O)(=O)c1ccccc1` (stereo partly drawn) [Compound I-1, (2S)-2-[[(1,1-dimethylethoxy)carbonyl]amino]-4-(R,S-chloropropionyl)amino-butanoyl-(4R)-4-[(7-methoxy-2-phenyl-4-quinolinyl)oxy]-L-prolyl-1-amino-2-ethenyl-N-(phenylsulfonyl)-(1R,2S)-cyclopropanecarboxamide]: the IC50 is below 0.01 µM in experiment [1] and 1 to 10 µM in experiment [2].

Turning to `C=C[C@@H]1C[C@]1(NC(=O)[C@@H]1C[C@@H](Oc2cc(-c3ccccc3)nc3cc(OC)ccc23)CN1C(=O)[C@H](CC1CO1)NC(=O)OC(C)(C)C)C(=O)NS(=O)(=O)c1ccccc1` (stereo partly drawn) [Compound I-6, (2S)-2-[[(1,1-dimethylethoxy)carbonyl]amino]-3-oxiranepropanoyl-(4R)-4-[(7-methoxy-2-phenyl-4-quinolinyl)oxy]-L-prolyl-1-amino-2-ethenyl-N-(phenylsulfonyl)-(1R,2S)-cyclopropanecarboxamide], the IC50 in experiment [1] was below 0.01 µM; in experiment [2], 0.1 to 1 µM.

Turning to `C=C[C@@H]1C[C@]1(NC(=O)[C@@H]1C[C@@H](Oc2cc(-c3ccccc3)nc3cc(OC)ccc23)CN1C(=O)[C@H](CNC(=O)C1(C#N)CC1)NC(=O)OC(C)(C)C)C(=O)NS(=O)(=O)c1ccccc1` [Compound I-11, N-[(1,1-dimethylethoxy)carbonyl]-3-[(1-cyano-cyclopropylcarboxyl)amino]-L-alanyl-(4R)-4-[(7-methoxy-2-phenyl-4-quinolinyl)oxy]-L-prolyl-1-amino-2-ethenyl-N-(phenylsulfonyl)-(1R,2S)-cyclopropanecarboxamide], the IC50 in experiment [1] is below 0.01 µM; in experiment [2], 0.1 to 1 µM.

On to `C=C[C@@H]1C[C@]1(NC(=O)[C@@H]1C[C@@H](Oc2cc(-c3ccccc3)nc3cc(OC)ccc23)CN1C(=O)[C@H](CNC(=O)[C@@H](C)Cl)NC(=O)OC(C)(C)C)C(=O)NS(=O)(=O)c1ccccc1` [Compound I-13, N-[(1,1-dimethylethoxy)carbonyl]-3-[R-(chloropropionyl)amino]-L-alanyl-(4R)-4-[(7-methoxy-2-phenyl-4-quinolinyl)oxy]-L-prolyl-1-amino-2-ethenyl-N-(phenylsulfonyl)-(1R,2S)-cyclopropanecarboxamide], for which the IC50 in experiment [1] was below 0.01 µM; in experiment [2] it was 0.1 to 1 µM.

`C=C[C@@H]1C[C@]1(NC(=O)[C@@H]1C[C@@H](Oc2cc(-c3ccccc3)nc3cc(OC)ccc23)CN1C(=O)[C@H](CNC(=O)[C@H](C)Cl)NC(=O)OC(C)(C)C)C(=O)NS(=O)(=O)c1ccccc1` [Compound I-21, tert-butyl(S)-3-((S)-2-chloropropanamido)-1-((2S,4R)-4-(7-methoxy-2-phenylquinolin-4-yloxy)-2-((1R,2S)-1-(phenylsulfonylcarbamoyl)-2-vinylcyclopropylcarbamoyl)pyrrolidin-1-yl)-1-oxopropan-2-ylcarbamate]: the IC50 in experiment [1] was below 0.01 µM; in experiment [2] it was 0.1 to 1 µM.

Take `C=C[C@@H]1C[C@]1(NC(=O)[C@@H]1C[C@@H](Oc2cc(-c3ccccc3)nc3cc(OC)ccc23)CN1C(=O)C1(NC(=O)OC(C)(C)C)CCNCC1)C(=O)NS(=O)(=O)c1ccccc1` [Compound I-24, tert-butyl-4-((2S,4R)-4-(7-methoxy-2-phenylquinolin-4-yloxy)-2-((1R,2S)-1-(phenylsulfonylcarbamoyl)-2-vinylcyclopropylcarbamoyl)pyrrolidine-1-carbonyl)piperidin-4-ylcarbamate]: the IC50 was in the range of 0.1 to 1 µM in experiment [1] and 1 to 10 µM in experiment [2].

On to `C=CC(=O)NC[C@H](NC(=O)CCCCCNC(=O)CCCC[C@@H]1SC[C@@H]2NC(=O)N[C@@H]21)C(=O)N1C[C@H](Oc2cc(-c3ccccc3)nc3cc(OC)ccc23)C[C@H]1C(=O)N[C@]1(C(=O)NS(=O)(=O)c2ccccc2)C[C@H]1C=C` [Compound I-31, (2S,4R)-1-((S)-3-acrylamido-2-(6-(5-((3aS,4S,6aR)-2-oxohexahydro-1H-thieno[3,4-d]imidazol-4-yl)pentanamido)hexanamido)propanoyl)-4-(7-methoxy-2-phenylquinolin-4-yloxy)-N-((1R,2S)-1-(phenylsulfonylcarbamoyl)-2-vinylcyclopropyl)pyrrolidine-2-carboxamide], for which the IC50 in experiment [1] is below 0.01 µM; in experiment [2] it was 0.01 to 0.1 µM.

For `C=CC(=O)N[C@@H](C)C(=O)N1C[C@H](Oc2cc(-c3ccccc3)nc3cc(OC)ccc23)C[C@H]1C(=O)N[C@]1(C(=O)NS(=O)(=O)c2ccccc2)C[C@H]1C=C` [Compound I-34, (2S,4R)-1-((S)-2-acrylamidopropanoyl)-4-(7-methoxy-2-phenylquinolin-4-yloxy)-N-((1R,2S)-1-(phenylsulfonylcarbamoyl)-2-vinylcyclopropyl)pyrrolidine-2-carboxamide], the IC50 in experiment [1] fell in the range of 0.01 to 0.1 µM; in experiment [2] it was 1 to 10 µM.

For orientation: IC90 means the concentration needed for an effect of 90%. `C=C[C@@H]1C[C@]1(NC(=O)[C@@H]1C[C@@H](Oc2nccc3ccccc23)CN1C(=O)[C@H](CCC(=O)C=C(C)C)NC(=O)OC(C)(C)C)C(=O)NS(=O)(=O)C1CC1` [Compound I-86, tert-butyl-(S)-1-((2S,4R)-2-((1R,2S)-1-(cyclopropylsulfonylcarbamoyl)-2-vinylcyclopropylcarbamoyl)-4-(isoquinolin-1-yloxy)pyrrolidin-1-yl)-7-methyl-1,5-dioxooct-6-en-2-ylcarbamate] displayed an IC90 in experiment [3] of 0.01 to 0.1 µM. The IC50 was below 0.01 µM in experiment [3]; 0.1 to 1 µM in experiment [4]; below 0.01 µM in experiment [5] (read-out: IC50_APP, WT, apparent IC50, wild type NS3/4A 1b); 0.1 to 1 µM in experiment [6].

`C=C[C@@H]1C[C@]1(NC(=O)[C@@H]1C[C@@H](Oc2nccc3ccc(-c4cccs4)cc23)CN1C(=O)[C@H](CCC(=O)C=C(C)C)NC(=O)OC(C)(C)C)C(=O)NS(=O)(=O)C1CC1` [Compound I-87, tert-butyl-(S)-1-((2S,4R)-2-((1R,2S)-1-(cyclopropylsulfonylcarbamoyl)-2-vinylcyclopropylcarbamoyl)-4-(7-(thiophen-2-yl)isoquinolin-1-yloxy)pyrrolidin-1-yl)-7-methyl-1,5-dioxooct-6-en-2-ylcarbamate]: the IC90 in experiment [3] was in the range of 0.01 to 0.1 µM. Besides, the IC50 in experiment [3] is below 0.01 µM; in experiment [4], 0.1 to 1 µM; in experiment [5] it was below 0.01 µM; in experiment [6] it was 0.01 to 0.1 µM.
